Results reported in US10251937B2, “Retro-inverso analogs of spadin display increased antidepressant effects” (MEDINCELL, priority 2014, dated 2019).
Square brackets hold non-standard residues; d marks the D form. Peptide text beside a SMILES is read from it.

Key:
C57Bl/6J mice [1] = experiment: Forced Swimming Test (FST) in naive mice; type: in vivo; details: for immobility time, FST, duration of action: 10 naive animals
Experimental: Naïve male C57Bl/6J mice from 7 to 9 weeks old were used in all experiments (Janvier laboratory). Mice were housed 10 animals per cage under a 12-h light/12-h dark cycle (light on at 8:00 am), in a ventilated room at a temperature of 22±1° C. Animals had free access to water and food (A03; SAFE, Augy, France). All experiments were conducted according to policies on the care and use of laboratory animals of the Society for Neuroscience, and also with respect to national laws on animal use. The local Ethics Committee (CIEPAL) approved the experiments.
(§1) Stock solutions were prepared of 2 mg/mL (10^-3M) in distilled water, and before injection spadin solution was diluted in NaCl 0.9% to obtain the different concentrations used for treatments. Corticosterone (Sigma-Aldrich, France) was dissolved in drinking water at the concentration of 3.5 mg/L in the presence of 4.5 g/L of beta-cyclodextrin. […] Fluoxetine (Sigma-Aldrich, France) was dissolved in drinking water at the dose of 80 mg/L and administered during 21 days. For i.p. administration, fluoxetine (TEVA Santé, France) was dissolved in NaCl 0.9% at a concentration of 0.75 mg/mL. The amount injected was 3 mg/kg. Spadin and analogues were administered by i.v. injection. For acute treatment, drugs were administered in a single 100 μL bolus 30 min prior to the beginning of the behavioral tests. For subchronic treatment drugs were injected during 4 consecutive days and behavioral tests were performed on day 5, without additional injection.
The animals were individually placed in a non-escapable cylinder (height 30 cm, diameter 15 cm) filled with 15 cm-water at 22±1° C. The trial was conducted for 6 min. The total period of immobility was manually measured during the last 4 min of the test. A mouse was considered immobile when it remained floating with only slight movements to keep its head above water.

[2] = target: hERG (human Ether a go-go Related Gene) current IKr (Homo sapiens, UniProt Q12809); experiment: Cardiac IKr (hERG) current, whole cell patch clamp in transfected HEK cells
Chain of hERG (human Ether a go-go Related Gene) current IKr (Q12809 whole entry): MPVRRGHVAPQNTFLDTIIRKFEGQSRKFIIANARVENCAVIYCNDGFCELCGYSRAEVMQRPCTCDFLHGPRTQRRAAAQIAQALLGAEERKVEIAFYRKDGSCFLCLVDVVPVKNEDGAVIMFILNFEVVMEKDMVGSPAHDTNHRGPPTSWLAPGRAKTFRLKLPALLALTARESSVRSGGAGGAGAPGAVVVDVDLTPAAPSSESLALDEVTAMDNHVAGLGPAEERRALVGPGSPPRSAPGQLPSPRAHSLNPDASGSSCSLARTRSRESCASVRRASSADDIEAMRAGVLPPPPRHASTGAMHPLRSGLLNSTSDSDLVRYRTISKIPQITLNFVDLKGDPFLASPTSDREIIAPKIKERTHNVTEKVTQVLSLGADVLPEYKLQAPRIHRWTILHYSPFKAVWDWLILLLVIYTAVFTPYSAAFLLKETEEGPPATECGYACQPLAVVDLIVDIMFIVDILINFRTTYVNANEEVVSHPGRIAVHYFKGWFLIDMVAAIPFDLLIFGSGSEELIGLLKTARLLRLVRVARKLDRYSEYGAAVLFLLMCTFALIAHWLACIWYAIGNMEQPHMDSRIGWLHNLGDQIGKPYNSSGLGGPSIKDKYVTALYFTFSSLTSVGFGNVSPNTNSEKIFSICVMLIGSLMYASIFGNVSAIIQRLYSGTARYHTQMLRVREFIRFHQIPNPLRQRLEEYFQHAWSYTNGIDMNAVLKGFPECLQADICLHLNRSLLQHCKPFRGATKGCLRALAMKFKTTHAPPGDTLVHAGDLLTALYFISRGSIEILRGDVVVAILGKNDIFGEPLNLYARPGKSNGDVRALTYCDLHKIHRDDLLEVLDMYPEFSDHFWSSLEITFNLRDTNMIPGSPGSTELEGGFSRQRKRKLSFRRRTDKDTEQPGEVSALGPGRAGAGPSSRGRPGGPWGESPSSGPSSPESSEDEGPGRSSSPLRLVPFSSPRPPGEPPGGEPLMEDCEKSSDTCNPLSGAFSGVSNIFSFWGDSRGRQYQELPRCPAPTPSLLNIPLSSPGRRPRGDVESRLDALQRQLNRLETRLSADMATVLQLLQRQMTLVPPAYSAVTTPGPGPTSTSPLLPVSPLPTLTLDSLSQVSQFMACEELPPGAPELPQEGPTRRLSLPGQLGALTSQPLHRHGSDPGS
Experimental: HEK-293 native cells were grown in serum in an atmosphere of 95% air/5% CO2 in Dulbecco's modified Eagle's medium supplemented with 10% (v/v) heat inactivated fetal bovine containing 1% (v/v) of penicillin/streptomycin and Glutamax×1. Cells were plated at a density of 20000 cells/35 mm dish and after 24 h cells were transfected using the JetPEI® method (Polyplus, France) with 25 ng/35 mm dish of p-IRES-HERG channel vector. Patch clamp experiments were carried out 48 h after transfection
All electrophysiological recordings were performed in whole cell configuration of the patch clamp technique. Each current was evaluated by using a RK 400 patch clamp amplifier (Axon Instrument, USA), low-pass filtered at 3 kHz and digitized at 10 kHz using a 12-bit analog-to-digital converter digidata (1322 series, Axon Instrument, USA). All current amplitudes are expressed in current densities. Results were expressed as mean±standard error of the mean (SEM). […] The bath solution contained 150 mM NaCl, 5 mM KCl, 3 mM MgCl2, 1 mM CaCl2 and 10 mM HEPES adjusted to pH 7.4 with NaOH. The pipette solution contained 155 mM KCl, 3 mM MgCl2, 5 mM EGTA and 10 mM HEPES adjusted to pH 7.2 with KOH. […] All experiments were performed at room temperature (21-22° c.). Stimulation protocols and data acquisition were carried out using a microcomputer (Dell Pentium) with a commercial software and hardware (pClamp 8.2). Currents were recorded by voltage clamp steps to membrane potentials of −100 to +60 mV in 20 mV steps applied from a holding potential of −80 mV. Duration of depolarization pulses were 0.825 ms, and the pulse cycling rate was 5 sec. […] Cells were continuously superfused with a microperfusion system. […] Tail currents were generated by repolarization to −40 mV. […] IKR currents were activated by voltage clamp steps of membrane potentials from −100 to +100 mV in 10 mV steps applied from a holding potential of +80 mV and tail currents were generated by a repolarization to +40 mV. […] The amplitudes of IKS and IKR currents were calculated at both the end of the first pulse and the peak of the tail pulse.

human-IKS current = human-IKS current (Homo sapiens, UniProt P51787); experiment: Cardiac IKs current, whole cell patch clamp in HEK-IKS cell line
Experimental: The human-TREK-1/HEK293 cell line (h-TREK-1/HEK) (Moha ou Maati, H. et al. (2011). PloS one, 6 (10), e25602) and HEK-IKS cell line (Ducroq, J. et al, (2010) Br J Pharmacol, 159(1):93-101) were grown in the presence of 0.5 mg/mL G418 in Dulbecco's modified Eagle's medium supplemented with 10% (v/v) heat inactivated fetal bovine serum containing 1% (v/v) penicillin/streptomycin in an atmosphere of 95% air/5% CO2.
All electrophysiological recordings were performed in whole cell configuration of the patch clamp technique. Each current was evaluated by using a RK 400 patch clamp amplifier (Axon Instrument, USA), low-pass filtered at 3 kHz and digitized at 10 kHz using a 12-bit analog-to-digital converter digidata (1322 series, Axon Instrument, USA). All current amplitudes are expressed in current densities. Results were expressed as mean±standard error of the mean (SEM). […] The bath solution contained 150 mM NaCl, 5 mM KCl, 3 mM MgCl2, 1 mM CaCl2 and 10 mM HEPES adjusted to pH 7.4 with NaOH. The pipette solution contained 155 mM KCl, 3 mM MgCl2, 5 mM EGTA and 10 mM HEPES adjusted to pH 7.2 with KOH. […] All experiments were performed at room temperature (21-22° c.). Stimulation protocols and data acquisition were carried out using a microcomputer (Dell Pentium) with a commercial software and hardware (pClamp 8.2). Currents were recorded by voltage clamp steps to membrane potentials of −100 to +60 mV in 20 mV steps applied from a holding potential of −80 mV. Duration of depolarization pulses were 0.825 ms, and the pulse cycling rate was 5 sec. […] Cells were continuously superfused with a microperfusion system. […] IKS currents were activated by voltage clamp steps of membrane potentials from −100 to +100 mV in 20 mV steps applied from a holding potential of −80 mV. Tail currents were generated by repolarization to −40 mV. Duration of both depolarization and repolarization pulses were 2.4 s, and the pulse cycling rate was 10 s. […] The amplitudes of IKS and IKR currents were calculated at both the end of the first pulse and the peak of the tail pulse.

C57Bl/6J mice [3] = experiment: Novelty Suppressed Feeding (NSF) test; type: in vivo; details: 10 μg/kg i.v. daily for 4 days, test on day 5
Experimental: as §1
The NSF paradigm is a two day test protocol. Day one, mice were deprived from food. Day two mice were placed in a highly brightly lit area, in a plastic box (45×45×20 cm), with a floor covered with wooden bedding. The test was carried out during a 10 min period; during this time the latency to eat was measured. During the test a single pellet of food was placed in the center of the box, on a white platform.

C57Bl/6J mice [4] = experiment: Tail-immersion (tail flick) test, thermal pain; type: in vivo; details: 10 μg/kg i.v., 30 min before test, n=10
Experimental: Mice were i.v. injected with 10 μg/kg of spadin in a bolus of 100 μL or 100 μL of a saline solution (0.9% NaCl) 30 min before the beginning of the test. The tail was immersed in a water bath at 48° C. until withdrawal was observed (cut-off time: 30 s). Two separate withdrawal latency time determinations were averaged.

C57Bl/6J mice [5] = experiment: Seizure induced by kainate; type: in vivo; details: for effect against epilepsy seizure triggered by kainate: kainate 25 mg/Kg
Experimental: Kainate solutions were prepared in a solution of 140 mM NaCl (saline solution). […] Mice (n=10 per group) were monitored during 2 h for onset and extent of seizures. Six levels of seizure severity were defined as follows: 1—immobility, 2—head/neck movements, 3—clonic unilateral activity, 4—clonic bilateral activity, 5—generalized convulsions, and 6—death. Seizure severity was blindly scored (Moha ou Maati, H. et al. A human TREK-1/HEK cell line: a highly efficient screening tool for drug development in neurological diseases. PLoS One 6, e25602, (2011)). The seizure index was calculated by averaging the points for seizure activity in each group (n=10 per treatment).

[6] = 0 mV, in the presence of 10 μM, n=5

CC[C@@H](C)[C@@H](NC(=O)CNC(=O)[C@H](NC(=O)[C@@H](CO)NC(=O)[C@@H](Cc1c[nH]c2ccccc12)NC(=O)CNC(=O)[C@@H](CC(C)C)NC(=O)[C@@H](CCCNC(=N)N)NC(C)=O)C(C)C)C(=O)N1CCC[C@@H]1C(=O)NCC(=O)N[C@H](CO)C(=O)N[C@H](Cc1c[nH]c2ccccc12)C(=O)N[C@H](CCCNC(=N)N)C(=O)N1CCC[C@@H]1C(=O)N[C@H](CC(C)C)C(=O)N1CCC[C@@H]1C(=O)N[C@H](C)C(N)=O [Analog 3, Ac-rlGwsvGipGswrplpa-NH2] (Ac-[dR][dL]G[dW][dS][dV]G[dI][dP]G[dS][dW][dR][dP][dL][dP][dA]-NH2)
immobility time, FST, acute treatment (C57Bl/6J mice [1]; 10 μg/kg acute i.v., measured 30 minutes after injection, n=10): 135.10 ± 8.11 s
immobility time, FST, subchronic treatment (C57Bl/6J mice [1]; 10 μg/kg i.v. once a day for 4 days, test on day 5): 114.9 ± 9.82 s
immobility time, FST, duration of action (C57Bl/6J mice [1]; 1 hour after i.v. injection): 123.4 ± 7.0 s
immobility time, FST, duration of action (C57Bl/6J mice [1]; 16 hours after i.v. injection): 129.6 ± 12.7 s
duration of activity in vivo compared to Analog 8 (C57Bl/6J mice [1]; FST (FIG. 4B)): active for longer duration in vivo
IKr current density at end of first pulse [2, 6]: 224.48±35.94 pA/pF
IKr tail current density [2, 6]: 212.99±38.38 pA/pF
effect on currents generated by IKr channels expressed in HEK cells ([2]; 10 μM): did not modify currents
IKS tail current density (human-IKS current; [6]): 8.33±2.06 pA/pF
IKs current density at the end of pulses (human-IKS current; [6]): 17.58±4.03 pA/pF
effect on currents generated by IKS channels expressed in HEK cells (human-IKS current; 10 μM): did not modify currents
latency to feed, NSF (C57Bl/6J mice [3]): 143.88 ± 23.42 s
tail withdrawal time (C57Bl/6J mice [4]): 11.32 ± 1.04 s
effect against epilepsy seizure triggered by kainate (C57Bl/6J mice [5]; 1 μg/Kg i.v.): no protective effect
effect against epilepsy seizure triggered by kainate (C57Bl/6J mice [5]; 10 μg/Kg i.v.): important protective effect
mice among 10 that reached the two less severe stages of epilepsy seizures (immobility, head or neck movements) (C57Bl/6J mice [5]; 10 μg/Kg i.v., kainate 25 mg/Kg i.p.): two
